From patent US20120184016A1, “NOVEL PROTEIN AND GENE THAT CODES THEREFOR” (priority 2009, published 2012)

Key:
[1] = tested on: recombinant β-galactoside-α2,6-sialyltransferase N1C0; assay: Sugar acceptor substrate specificity (sialic acid transfer to monosaccharides/disaccharides); assay type: biochemical, Photobacterium leiognathi strain JT-SHIZ-119; set-up: Relative activity: concentration or dose not given beside the values; conditions: for Transferred NeuAc / transfer of sialic acid to the sugar acceptor substrate (in words): purified enzyme; for Transferred NeuAc: substance used as sugar acceptor substrate; for Relative activity: sialyltransferase activity represented by 100 for lactose; for transfer of sialic acid to the sugar acceptor substrate (in words): among 11 monosaccharides and disaccharides
Experimental: Sialyltransferase activity was measured by a method described in J. Biochem., 120, 104-110 (1996) (which is hereby incorporated by reference in its entirety). Specifically, the enzyme reaction was performed using a reaction solution (30 μL) containing CMP-NeuAc (70 nmol, containing about 20000 cpm CMP-NeuAc in which NeuAc was labeled with ^14C; NeuAc represents N-acetylneuraminic acid) as a sugar donor substrate, lactose (1.25 μmol) as a sugar acceptor substrate, NaCl added to give a concentration of 0.5 M, and the enzyme prepared as described above. The enzyme reaction was carried out at 25° C. for about 10 to 180 minutes. After completion of the reaction, 1.97 mL of 5 mM phosphate buffer (pH 6.8) was added to the reaction solution, which was then applied to a Dowex 1×8 (PO4^3− form, 0.2×2 cm, manufactured by Bio-Rad Laboratories, Inc.) column. The radioactivity contained in the reaction product contained in the eluate (0 to 2 mL) from this column, that is, sialyllactose, was measured to calculate the enzyme activity. One enzyme unit (1 U) is defined as the amount of enzyme required to transfer one micromole of sialic acid per minute.
Sialic acid transfer reaction was performed using the purified enzyme, JT-SHIZ-119-derived recombinant β-galactoside-α2,6-sialyltransferase SHIZ119-N1C0, prepared in Example 3 and using various monosaccharides/disaccharides as sugar acceptor substrates. The reaction was performed by the method described in J. Biochem., 120, 104-110 (1996).
The monosaccharides used as sugar acceptor substrates were the following eight types: methyl-α-D-galactopyranoside (Gal-α-OMe), methyl-β-D-galactopyranoside (Gal-β-OMe), methyl-α-D-glucopyranoside (Glc-α-OMe), methyl-β-D-glucopyranoside (Glc-β-OMe), methyl-α-D-mannopyranoside (Man-α-OMe), methyl-β-D-mannopyranoside (Man-(3-OMe), N-acetylgalactosamine (GalNAc), and N-acetylglucosamine (GlcNAc). The disaccharides used were the following three types: lactose (Gal-β1,4-Glc), N-acetyllactosamine (Gal-β1,4-GlcNAc), and Gal-β1,3-GalNAc.
Note that the relative activity for each acceptor substrate is based on the sialyltransferase activity represented by 100 for lactose.

[2] = tested on: JT-SHIZ-119-derived recombinant β-galactoside-α2,6-sialyltransferase N1C0 (neuraminidase activity); assay: Substrate specificity of neuraminidase activity with PA-sugar chains, HPLC; assay type: biochemical, Photobacterium leiognathi strain JT-SHIZ-119; conditions: 30° C. for 18 hours; FIGS. 3-5, 3-7, 3-8
Experimental: The substrate specificity of neuraminidase, that is, the linkage mode of sialic acid to a sugar chain that is cleaved by the neuraminidase can be determined by, but not limited to, a method using a pyridylaminated sugar chain. More specifically, the enzyme reaction by neuraminidase is performed using PA sugar chains in which sialic acid is linked by α2,3-linkage, α2,6-linkage, or α2,8-linkage (for example, pyridylaminated sugar chains such as PA-Sugar Chain 029, PA-Sugar Chain 023, and PA-Sugar Chain 034 available from Takara Bio Inc.). The reaction product is analyzed by high performance liquid chromatography, and the amount of sialic acid that was cleaved is calculated from the retention time and peak area of the reaction product.
To reveal the specificity of the neuraminidase activity of the JT-SHIZ-119-derived recombinant β-galactoside-α2,6-sialyltransferase N1C0, reactions using a PA-sugar chain shown in Table 4, to which sialic acid is linked via α2,3-, α2,6-, or α2,8-linkage (PA-Sugar Chain 029, PA-Sugar Chain 023, or PA-Sugar Chain 034, manufactured by Takara Bio Inc.) as a substrate were performed.
To a purified enzyme solution of the JT-SHIZ-119-derived recombinant β-galactoside-α2,6-sialyltransferase N1C0 (equivalent to 0.6 U as sialyltransferase activity), 1.5 μL of a 10 pmol/μL PA-sugar chain was added, followed by reaction at 30° C. for 18 hours. After completion of the reaction, the reaction solution was treated at 100° C. for 2 minutes to inactivate the enzyme, followed by HPLC to analyze the reaction product. In the case of using PA-Sugar Chain 023 as the substrate, the pyridylaminated sugar chain was eluted and analyzed under the same conditions as those in Example 1. In the case of using PA-Sugar Chain 029 or PA-Sugar Chain 034 as the substrate, the elution was performed using eluent A (100 mM acetate-triethylamine, pH 5.0) and eluent B (100 mM acetate-triethylamine containing 0.5% n-butanol, pH 5.0) with a linear gradient of 0 to 100% eluent B (0 to 35 min), 100% eluent B (35 to 50 min), and then a linear gradient of 100% to 30% eluent B (51 to 75 min). The analysis was performed under the conditions of Example 1. FIGS. 3-2 to 3-8 show the results.

Row | Compound | Transferred NeuAc [1] | Relative activity [1] | HPLC peak after reaction of the PA-sugar chain with the purified enzyme solution [2] | transfer of sialic acid to the sugar acceptor substrate (in words) [1]
1 | CO[C@@H]1O[C@H](CO)[C@@H](O)[C@H](O)[C@@H]1O [Methyl-β-D-mannopyranoside, methyl-β-D-mannopyranoside] | 0.04 nmol/min | 1% |  | 
2 | CC(=O)NC1C(O)CC(OC2C(O)C(CO)OC(OC(C(O)CO)C(O)C(O)CNc3ccccn3)C2O)(C(=O)O)OC1C(O)C(O)CO (centres unmarked) [PA-Sugar Chain 029, Neu5Acα2-3Galβ1-4Glc-PA] |  |  | corresponds to PA-Sugar Chain 029 | 
3 | GD1b-hexasaccharide [PA-Sugar Chain 034] |  |  | corresponds to PA-Sugar Chain 034 | 
4 | CO[C@@H]1O[C@H](CO)[C@@H](O)[C@H](O)[C@H]1O [Methyl-β-D-glucopyranoside, methyl-β-D-glucopyranoside] | <0.01 nmol/min |  |  | 
5 | CO[C@@H]1O[C@H](CO)[C@H](O)[C@H](O)[C@H]1O [Methyl-β-D-galactopyranoside, methyl-β-D-galactopyranoside] | 1.1 nmol/min | 38% |  | efficiently transferred
6 | CC(=O)N[C@H]1C(O)O[C@H](CO)[C@@H](O[C@@H]2O[C@H](CO)[C@H](O)[C@H](O)[C@H]2O)[C@@H]1O (some centres unmarked) [N-Acetyllactosamine, N-acetyllactosamine] | 2.96 nmol/min | 103% |  | efficiently transferred
7 | CC(=O)N[C@H]1C(O)O[C@H](CO)[C@H](O)[C@@H]1O[C@@H]1O[C@H](CO)[C@H](O)[C@H](O)[C@H]1O (stereo partly drawn) [Gal-β1,3-GalNAc] | 1.68 nmol/min | 58% |  | efficiently transferred
8 | CO[C@H]1O[C@H](CO)[C@H](O)[C@H](O)[C@H]1O [Methyl-α-D-galactopyranoside, methyl-α-D-galactopyranoside] | 0.04 nmol/min | 1% |  | 
9 | CC(=O)N[C@H]1C(O)O[C@H](CO)[C@@H](O)[C@@H]1O (some centres unmarked) [N-Acetylglucosamine, N-acetylglucosamine] | <0.01 nmol/min |  |  | 
10 | CO[C@H]1O[C@H](CO)[C@@H](O)[C@H](O)[C@@H]1O [Methyl-α-D-mannopyranoside, methyl-α-D-mannopyranoside] | <0.01 nmol/min |  |  | 
11 | N-Acetyllactosamine type, disialylated biantennary [PA-Sugar Chain 023] |  |  | corresponds to PA-Sugar Chain 001 | 
12 | CC(=O)N[C@H]1C(O)O[C@H](CO)[C@H](O)[C@@H]1O (some centres unmarked) [N-Acetylgalactosamine, N-acetylgalactosamine] | 0.29 nmol/min | 10% |  | efficiently transferred
13 | OC[C@H]1O[C@@H](O[C@H]2[C@H](O)[C@@H](O)C(O)O[C@@H]2CO)[C@H](O)[C@@H](O)[C@H]1O (some centres unmarked) [Lactose, lactose] | 2.88 nmol/min | 100% |  | efficiently transferred
14 | CO[C@H]1O[C@H](CO)[C@@H](O)[C@H](O)[C@H]1O [Methyl-α-D-glucopyranoside, methyl-α-D-glucopyranoside] | <0.01 nmol/min |  |  | 
